Results as given in patent US20200405697A1, “Antitumor Agent” (Taiho Pharmaceutical Co., Ltd, priority 2017, published 2020).

Columns and labels:
[1] = tested on: A549 (Human lung cancer cell line); assay: Effect of combination of sulfonamide compound and other antitumor agent (CellTiter-Glo, combination index): A549
Procedure: (§1) Each cell line was seeded at 90 L/well to a 96-well culture plate (Thermo Fisher Scientific, Inc.) according to the above tables. The cell-seeded plate was cultured in an incubator set to 37° C. and 500 CO2. On the day following seeding, varying concentrations of the sulfonamide compound and the other antitumor agent were added in combination to the cells. […] The serial dilutions of each compound, or DW was added at 5μL/well to the plate such that each compound and DW, or the sulfonamide compound and the other antitumor agent were combined. […] The plate after the addition was cultured at 37° C. for 3 days under 5% CO2 conditions.
(§2) Three days later, CellTiter-Glo(R) 2.0 Reagent (Promega Corporation) was added at 100 μL/well, and the amount of luminescence was measured using a plate reader EnSpire(R) Multimode Plate Reader (PerkinElmer Co., Ltd.).
(§3) An average value from 3 wells was calculated as to each drug condition from the obtained data, and cell survival rate normalized against control wells supplemented with the vehicle (DW) was calculated. A Fa (fractional inhibition) value was calculated by subtracting the cell survival rate from 1.

[2] = tested on: CFPAC-1 (Human pancreatic cancer cell line); assay: Effect of combination of sulfonamide compound and other antitumor agent (CellTiter-Glo, combination index): CFPAC-1;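 note: cells exposed to both agents together for 3 days, viability read by luminescence, normalized to vehicle-treated control wells, mean of triplicate wells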
Procedure: as §1, §2, §3

[3] = tested on: HCT116 (Human large intestine cancer cell line); assay: Effect of combination of sulfonamide compound and other antitumor agent (CellTiter-Glo, combination index): HCT116; format: cell-based
Procedure: as §1, §2, §3

[4] = Example Compound 14 4420 nM + Gemcitabine 8.38 nM
[5] = Example Compound 209A 635 nM + Gemcitabine 5.60 nM
[6] = Example Compound 209A 952 nM + Gemcitabine 8.39 nM
[7] = Example Compound 235A 780 nM + Gemcitabine 5.60 nM
[8] = Example Compound 235A 1170 nM + Gemcitabine 8.40 nM
[9] = Example Compound 5 1050 nM + Gemcitabine 5.28 nM
[10] = Example Compound 14 2080 nM + Gemcitabine 5.28 nM
[11] = Example Compound 14 3120 nM + Gemcitabine 7.92 nM
[12] = Example Compound 209A 508 nM + Gemcitabine 5.28 nM
[13] = Example Compound 235A 722 nM + Gemcitabine 5.28 nM
[14] = Example Compound 5 567 nM + Prexasertib 10.7 nM
[15] = Example Compound 5 851 nM + Prexasertib 16.1 nM
[16] = Example Compound 14 1000 nM + Prexasertib 7.14 nM
[17] = Example Compound 14 1500 nM + Prexasertib 10.7 nM
[18] = Example Compound 14 2250 nM + Prexasertib 16.1 nM
[19] = Example Compound 209A 187 nM + Prexasertib 7.13 nM
[20] = Example Compound 209A 281 nM + Prexasertib 10.7 nM
[21] = Example Compound 209A 421 nM + Prexasertib 16.1 nM
[22] = HCT116, Example Compound 235A 317 nM combined with Prexasertib 7.15 nM, molar ratio 1:0.02255
[23] = HCT116, Example Compound 235A 475 nM combined with Prexasertib 10.7 nM, molar ratio 1:0.02255
[24] = HCT116, Example Compound 235A 712 nM combined with Prexasertib 16.1 nM, molar ratio 1:0.02255
[25] = Example Compound 14 874 nM + Prexasertib 1.97 nM
[26] = Example Compound 14 1310 nM + Prexasertib 2.96 nM
[27] = Example Compound 14 1970 nM + Prexasertib 4.45 nM
[28] = Example Compound 209A 188 nM + Prexasertib 1.97 nM
[29] = Example Compound 209A 282 nM + Prexasertib 2.96 nM
[30] = Example Compound 235A 231 nM + Prexasertib 1.97 nM
[31] = Example Compound 235A 346 nM + Prexasertib 2.96 nM
[32] = Example Compound 235A 520 nM + Prexasertib 4.44 nM
[33] = Example Compound 5 311 nM + Prexasertib 1.89 nM
[34] = Example Compound 5 466 nM + Prexasertib 2.84 nM
[35] = Example Compound 5 700 nM + Prexasertib 4.26 nM
[36] = Example Compound 14 616 nM + Prexasertib 1.89 nM
[37] = Example Compound 14 925 nM + Prexasertib 2.84 nM
[38] = Example Compound 14 1390 nM + Prexasertib 4.27 nM
[39] = Example Compound 209A 151 nM + Prexasertib 1.90 nM
[40] = Example Compound 209A 226 nM + Prexasertib 2.84 nM
[41] = Example Compound 235A 214 nM + Prexasertib 1.89 nM
[42] = Example Compound 235A 321 nM + Prexasertib 2.84 nM
[43] = Example Compound 235A 481 nM + Prexasertib 4.26 nM
[44] = Example Compound 14 874 nM + SCH900776 909 nM
[45] = Example Compound 14 1310 nM + SCH900776 1360 nM
[46] = Example Compound 14 1970 nM + SCH900776 2050 nM
[47] = Example Compound 14 2950 nM + SCH900776 3070 nM
[48] = Example Compound 209A 188 nM + SCH900776 909 nM
[49] = Example Compound 209A 282 nM + SCH900776 1360 nM
[50] = Example Compound 209A 635 nM + SCH900776 3070 nM
[51] = Example Compound 235A 231 nM + SCH900776 909 nM
[52] = Example Compound 235A 346 nM + SCH900776 1360 nM
[53] = Example Compound 235A 520 nM + SCH900776 2050 nM
[54] = Example Compound 235A 780 nM + SCH900776 3070 nM
[55] = Example Compound 235A 1170 nM + SCH900776 4610 nM
[56] = Example Compound 5 466 nM + SCH900776 253 nM
[57] = Example Compound 5 700 nM + SCH900776 379 nM
[58] = Example Compound 14 925 nM + SCH900776 253 nM
[59] = Example Compound 14 1390 nM + SCH900776 380 nM
[60] = Example Compound 14 2080 nM + SCH900776 569 nM
[61] = Example Compound 209A 226 nM + SCH900776 253 nM
[62] = Example Compound 209A 508 nM + SCH900776 568 nM
[63] = Example Compound 235A 321 nM + SCH900776 253 nM
[64] = Example Compound 235A 481 nM + SCH900776 379 nM
[65] = Example Compound 235A 722 nM + SCH900776 569 nM

Nc1ccn([C@@H]2O[C@H](CO)[C@@H](O)C2(F)F)c(=O)n1 [Gemcitabine, gemcitabine]
CI value [1, 4]: 0.752
Fa value [1, 4]: 0.8565
CI value [1, 5]: 0.792
Fa value [1, 5]: 0.7031
CI value [1, 6]: 0.791
Fa value [1, 6]: 0.8749
CI value [1, 7]: 0.844
Fa value [1, 7]: 0.6511
CI value [1, 8]: 0.714
Fa value [1, 8]: 0.8624
CI value [2, 9]: 0.788
Fa value [2, 9]: 0.6974
CI value [2, 10]: 0.756
Fa value [2, 10]: 0.6749
CI value [2, 11]: 0.752
Fa value [2, 11]: 0.7790
CI value [2, 12]: 0.736
Fa value [2, 12]: 0.6998
CI value [2, 13]: 0.722
Fa value [2, 13]: 0.6762

COc1cccc(OCCCN)c1-c1cc(Nc2cnc(C#N)cn2)n[nH]1 [Prexasertib, prexasertib]
CI value [3, 14]: 0.289
Fa value [3, 14]: 0.7563
CI value [3, 15]: 0.180
Fa value [3, 15]: 0.9499
CI value [3, 16]: 0.535
Fa value [3, 16]: 0.3054
CI value [3, 17]: 0.208
Fa value [3, 17]: 0.8469
CI value [3, 18]: 0.174
Fa value [3, 18]: 0.9453
CI value [3, 19]: 0.792
Fa value [3, 19]: 0.1703
CI value [3, 20]: 0.230
Fa value [3, 20]: 0.8191
CI value [3, 21]: 0.173
Fa value [3, 21]: 0.9441
CI value [3, 22]: 0.557
Fa value [3, 22]: 0.3131
CI value [3, 23]: 0.224
Fa value [3, 23]: 0.8595
CI value [3, 24]: 0.197
Fa value [3, 24]: 0.9459
CI value [1, 25]: 0.277
Fa value [1, 25]: 0.4973
CI value [1, 26]: 0.193
Fa value [1, 26]: 0.7864
CI value [1, 27]: 0.177
Fa value [1, 27]: 0.8986
CI value [1, 28]: 0.258
Fa value [1, 28]: 0.5015
CI value [1, 29]: 0.189
Fa value [1, 29]: 0.7685
CI value [1, 30]: 0.331
Fa value [1, 30]: 0.4315
CI value [1, 31]: 0.191
Fa value [1, 31]: 0.7784
CI value [1, 32]: 0.174
Fa value [1, 32]: 0.8915
CI value [2, 33]: 0.579
Fa value [2, 33]: 0.3644
CI value [2, 34]: 0.413
Fa value [2, 34]: 0.6946
CI value [2, 35]: 0.525
Fa value [2, 35]: 0.7564
CI value [2, 36]: 0.886
Fa value [2, 36]: 0.2455
CI value [2, 37]: 0.452
Fa value [2, 37]: 0.6771
CI value [2, 38]: 0.514
Fa value [2, 38]: 0.7725
CI value [2, 39]: 0.735
Fa value [2, 39]: 0.3163
CI value [2, 40]: 0.558
Fa value [2, 40]: 0.6872
CI value [2, 41]: 0.645
Fa value [2, 41]: 0.3469
CI value [2, 42]: 0.344
Fa value [2, 42]: 0.6687
CI value [2, 43]: 0.372
Fa value [2, 43]: 0.7578

Cn1cc(-c2cnn3c(N)c(Br)c([C@@H]4CCCNC4)nc23)cn1 [SCH900776]
CI value [1, 44]: 0.194
Fa value [1, 44]: 0.6512
CI value [1, 45]: 0.184
Fa value [1, 45]: 0.7883
CI value [1, 46]: 0.191
Fa value [1, 46]: 0.8714
CI value [1, 47]: 0.271
Fa value [1, 47]: 0.8814
CI value [1, 48]: 0.180
Fa value [1, 48]: 0.6553
CI value [1, 49]: 0.170
Fa value [1, 49]: 0.7965
CI value [1, 50]: 0.273
Fa value [1, 50]: 0.8744
CI value [1, 51]: 0.262
Fa value [1, 51]: 0.6135
CI value [1, 52]: 0.280
Fa value [1, 52]: 0.7038
CI value [1, 53]: 0.275
Fa value [1, 53]: 0.8035
CI value [1, 54]: 0.275
Fa value [1, 54]: 0.8771
CI value [1, 55]: 0.430
Fa value [1, 55]: 0.8705
CI value [2, 56]: 0.283
Fa value [2, 56]: 0.6428
CI value [2, 57]: 0.283
Fa value [2, 57]: 0.7803
CI value [2, 58]: 0.465
Fa value [2, 58]: 0.4714
CI value [2, 59]: 0.322
Fa value [2, 59]: 0.7231
CI value [2, 60]: 0.409
Fa value [2, 60]: 0.7671
CI value [2, 61]: 0.385
Fa value [2, 61]: 0.5579
CI value [2, 62]: 0.474
Fa value [2, 62]: 0.7649
CI value [2, 63]: 0.474
Fa value [2, 63]: 0.4978
CI value [2, 64]: 0.382
Fa value [2, 64]: 0.7223
CI value [2, 65]: 0.484
Fa value [2, 65]: 0.7722
